This note sets out measurements from US11307205B2, “Non-radioactive cytotoxicity assays” (University of Southern California, priority 2016, dated 2022).

The subject of test [1] is HEL-92-1-17 cells. Description: Matador assay, Digitonin-induced death of HEL cells expressing a luciferase reporter. The class given is cell-based. The settings on record: Digitonin 30 μg/ml, 1 hour. How it is done:
A 100× stock solution of native coelenterazine (CTZ; Nanolight, cat #303) was made by dissolving 1 mg of lyophilized CTZ powder in 1.1 ml of 100% Methanol supplemented with 30 μl of 6N HCl to avoid oxidation of CTZ with time. To make CTZ assay buffer, the 100× stock solution of CTZ was diluted to 0.5× concentration in PBS. Unless indicated otherwise, a total volume of 15 μl of the CTZ assay buffer (as prepared above) was added using an auto-injector to each well of a 384-well white plate (Greiner, 384 well white plate cat #781075) containing cells expressing the non-secretory form of a copepod luciferase in approximately 50-60 μl volume of medium and plates were read for luminescence in well-mode using BioTek synergyH4 plate reader. In the well-mode, an auto-injector or dispenser is used and assay buffer is added in one well, luminescence is read in that well, then the assay buffer is added to next well and luminescence is read in that well. Where indicated, assay was also conducted in the endpoint mode. In the endpoint mode, an autoinjector or dispenser is not used, the assay buffer is added in all wells manually using a pipette and then luminescence is read in all wells of the plate. For 96 well plates, cells were plated in 200 μl of media and approximately 50 μl of 0.5×CTZ assay buffer was added. […]
Background: In a reporter assay the amount or activity of a reporter protein is the signal.

The test system of test [2] is RAJI cells. Description: Matador assay, Digitonin-induced death of RAJI cells expressing luciferase reporters. In kind it is cell-based. How it is done: A similar experiment was conducted with K562, HEL-91-1-17 and RAJI cells stably expressing NLuc from pLENTI-NLuc-AcV5-Blasticidin-Pa08 vector (SEQ ID NO: 92). Cells plated in 30 μl of medium per well were either treated with 30 μl of PBS or 30 μl of PBS containing Digitonin (final concentration 30 μg/ml) for 1 hour at 37° C., in a 5% CO2 incubator. For measurement of NLuc activity, 0.5×CTZ assay buffer was added by automated injector directly to each well of the 384-well white plate containing cells in 60 μl of volume (30 μl of RPMI-10% FBS+30 μl of Digitonin) without prior cell lysis and plates were read for luminescence using BioTek synergy H4 plate reader in well mode.
Briefly, 20000 cells in 20 μl media were plated in each well of a 384 well plate followed by addition of 20 μl of Digitonin (final concentration 30 μg/ml) or media alone (20 μl) and incubated for 90 minutes.

As for `C[C@@H]1CC[C@@]2(OC1)O[C@H]1[C@@H](O)[C@H]3[C@@H]4CC[C@H]5C[C@@H](O[C@@H]6O[C@H](CO)[C@H](O[C@@H]7O[C@H](CO)[C@@H](O)[C@H](O[C@@H]8OC[C@@H](O)[C@H](O)[C@H]8O)[C@H]7O[C@@H]7O[C@H](CO)[C@H](O)[C@H](O[C@@H]8O[C@H](CO)[C@@H](O)[C@H](O)[C@H]8O)[C@H]7O)[C@H](O)[C@H]6O)[C@H](O)C[C@]5(C)[C@H]4CC[C@]3(C)[C@H]1[C@@H]2C` [Digitonin], the GLuc luciferase activity entry in test [1] (HEL-92-1-17 cells stably expressing GLuc, evident even in wells containing a single cell) is recorded as “increase in GLuc luciferase activity”; in test [2] (RAJI cells stably expressing GLuc from MSCVhygro-GLuc-HA-G02, Digitonin), “Essentially similar results”. The NLuc activity result is on record as “increase in NLuc activity” in test [1] (HEL-92-1-17 cells stably expressing NLuc) and “increase in NLuc activity” in test [2] (RAJI cells stably expressing NLuc, Digitonin 30 μg/ml, 1 hour). For the same molecule, the TLuc activity entry in test [2] (RAJI cells expressing TurboLuc16, Digitonin 90 min) is given as “increase in TLuc activity”. Moreover, the “FfLuc and GLuc activities” value in test [2] (Raji cells expressing both GLuc and FfLuc, Digitonin 30 μg/ml, 90 minutes) was “increase in both FfLuc and GLuc activities”.
